Like-named read-outs stand apart in the source and are kept apart here.
What was measured:
CDK19/Cyclin C = CDK19/Cyclin C (Homo sapiens, UniProt Q9BWU1); assay: NanoBRET live-cell target engagement, NanoLuc-CDK19/Cyclin C in HEK-293; details: read-out: CDK19/C Inhibition at 10µM (%), 10µM
CDK14/Cyclin Y = CDK14/Cyclin Y (Homo sapiens, UniProt O94921); assay: NanoBRET live-cell target engagement, CDK14-NanoLuc/Cyclin Y in HEK-293; format: binding; details: 10µM, read-out: CDK14/Y Inhibition at 10µM (%)
Chain of CDK14/Cyclin Y (O94921 whole entry): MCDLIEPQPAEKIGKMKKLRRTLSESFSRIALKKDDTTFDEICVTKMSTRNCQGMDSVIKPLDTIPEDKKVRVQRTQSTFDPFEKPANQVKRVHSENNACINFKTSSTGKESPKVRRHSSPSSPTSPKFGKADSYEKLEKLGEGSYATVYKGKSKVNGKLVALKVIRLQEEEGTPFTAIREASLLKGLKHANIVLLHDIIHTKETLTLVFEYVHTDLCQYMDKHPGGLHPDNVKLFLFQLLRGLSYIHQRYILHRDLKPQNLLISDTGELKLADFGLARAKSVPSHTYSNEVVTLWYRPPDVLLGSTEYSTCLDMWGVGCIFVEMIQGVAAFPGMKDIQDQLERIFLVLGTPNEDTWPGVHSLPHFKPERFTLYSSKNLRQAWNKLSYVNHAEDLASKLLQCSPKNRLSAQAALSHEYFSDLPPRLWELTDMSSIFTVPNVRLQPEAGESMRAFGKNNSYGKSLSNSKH
Chain of CDK14/Cyclin Y (Q8ND76 whole entry partner): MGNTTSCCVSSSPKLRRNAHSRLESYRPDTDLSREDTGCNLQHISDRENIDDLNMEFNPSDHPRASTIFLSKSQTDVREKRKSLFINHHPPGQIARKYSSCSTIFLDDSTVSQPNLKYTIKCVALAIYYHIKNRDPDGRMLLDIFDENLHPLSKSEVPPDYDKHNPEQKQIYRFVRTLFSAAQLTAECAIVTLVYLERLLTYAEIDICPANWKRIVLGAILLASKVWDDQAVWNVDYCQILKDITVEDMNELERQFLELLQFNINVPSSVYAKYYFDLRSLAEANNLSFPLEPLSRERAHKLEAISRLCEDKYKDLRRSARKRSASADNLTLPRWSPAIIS

CDK11B/Cyclin L2 = CDK11B/Cyclin L2 (Homo sapiens, UniProt P21127); assay: NanoBRET live-cell target engagement, CDK11B-NanoLuc/Cyclin L2 in HEK-293; format: binding; details: 10µM, read-out: CDK11b/L2 Inhibition at 10µM (%)
Chain of CDK11B/Cyclin L2 (P21127 1-782 isoform P21127-2): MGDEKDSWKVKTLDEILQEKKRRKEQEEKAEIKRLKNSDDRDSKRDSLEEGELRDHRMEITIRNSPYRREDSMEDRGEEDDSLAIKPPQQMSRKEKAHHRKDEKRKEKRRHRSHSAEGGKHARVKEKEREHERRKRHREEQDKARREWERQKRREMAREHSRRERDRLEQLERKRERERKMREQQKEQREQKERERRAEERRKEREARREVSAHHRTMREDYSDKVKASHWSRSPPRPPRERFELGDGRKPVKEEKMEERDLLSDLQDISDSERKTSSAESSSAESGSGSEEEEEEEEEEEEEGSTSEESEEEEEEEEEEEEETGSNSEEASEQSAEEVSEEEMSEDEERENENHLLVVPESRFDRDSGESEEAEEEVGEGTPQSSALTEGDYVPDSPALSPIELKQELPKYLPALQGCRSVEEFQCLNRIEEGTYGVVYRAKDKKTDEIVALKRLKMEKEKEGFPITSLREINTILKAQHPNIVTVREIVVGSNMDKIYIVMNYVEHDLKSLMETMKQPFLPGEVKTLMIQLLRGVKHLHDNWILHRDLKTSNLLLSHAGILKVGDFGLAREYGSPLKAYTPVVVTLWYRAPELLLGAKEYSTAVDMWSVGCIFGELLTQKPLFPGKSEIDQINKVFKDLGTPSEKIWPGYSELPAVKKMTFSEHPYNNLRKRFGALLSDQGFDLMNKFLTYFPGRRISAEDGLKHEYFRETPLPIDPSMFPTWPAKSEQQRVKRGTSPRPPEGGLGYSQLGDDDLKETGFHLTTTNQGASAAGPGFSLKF

CDK3/Cyclin E1 = CDK3/Cyclin E1 (Homo sapiens, UniProt Q00526); assay: NanoBRET live-cell target engagement, CDK3-NanoLuc/Cyclin E1 in HEK-293; format: binding; details: for inhibition at 10 µM: read-out: CDK3/E1 Inhibition at 10µM (%); for IC50: read-out: CDK3/E1 IC50
CDK9/Cyclin K = CDK9/Cyclin K (Homo sapiens, UniProt P50750); assay: NanoBRET live-cell target engagement, NanoLuc-CDK9/Cyclin K in HEK-293; format: binding; details: 10µM, read-out: CDK9/K Inhibition at 10µM (%)
CDK11A/Cyclin L2 = target: T1, CDK11A/Cyclin L2 (Homo sapiens, UniProt Q9UQ88); assay: NanoBRET live-cell target engagement, CDK11A-NanoLuc/Cyclin L2 in HEK-293; format: binding; details: 10µM, read-out: CDK11a/L2 Inhibition at 10µM (%)
T1 sequence (Q9UQ88 1-783): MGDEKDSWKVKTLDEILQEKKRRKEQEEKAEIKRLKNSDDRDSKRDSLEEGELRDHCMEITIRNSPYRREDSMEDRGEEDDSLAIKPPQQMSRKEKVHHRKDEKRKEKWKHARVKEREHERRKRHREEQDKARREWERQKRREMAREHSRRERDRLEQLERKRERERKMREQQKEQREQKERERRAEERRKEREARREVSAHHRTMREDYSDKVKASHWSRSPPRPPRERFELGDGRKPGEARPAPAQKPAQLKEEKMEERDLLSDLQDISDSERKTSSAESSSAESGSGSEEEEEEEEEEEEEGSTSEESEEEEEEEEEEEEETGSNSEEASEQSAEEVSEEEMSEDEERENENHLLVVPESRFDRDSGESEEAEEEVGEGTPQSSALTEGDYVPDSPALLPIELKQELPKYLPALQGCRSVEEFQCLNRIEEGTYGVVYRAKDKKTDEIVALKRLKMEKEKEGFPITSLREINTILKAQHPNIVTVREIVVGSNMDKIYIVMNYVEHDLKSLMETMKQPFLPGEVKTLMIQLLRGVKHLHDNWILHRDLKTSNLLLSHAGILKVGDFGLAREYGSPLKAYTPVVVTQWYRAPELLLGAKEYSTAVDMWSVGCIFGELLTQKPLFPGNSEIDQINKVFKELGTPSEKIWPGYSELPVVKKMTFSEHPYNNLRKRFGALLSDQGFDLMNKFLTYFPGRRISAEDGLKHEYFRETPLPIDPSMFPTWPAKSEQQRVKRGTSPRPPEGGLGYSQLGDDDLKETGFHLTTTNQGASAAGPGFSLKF

CDK20/Cyclin H = CDK20/Cyclin H (Homo sapiens, UniProt Q8IZL9); assay: NanoBRET live-cell target engagement, NanoLuc-CDK20/Cyclin H in HEK-293; format: binding; details: 10µM, read-out: CDK20/H Inhibition at 10µM (%)
CDK8/Cyclin C = CDK8/Cyclin C (Homo sapiens, UniProt P49336); assay: NanoBRET live-cell target engagement, NanoLuc-CDK8/Cyclin C in HEK-293; format: binding; details: 10µM, read-out: CDK8/C Inhibition at 10µM (%)
Chain of CDK8/Cyclin C (P49336 whole entry): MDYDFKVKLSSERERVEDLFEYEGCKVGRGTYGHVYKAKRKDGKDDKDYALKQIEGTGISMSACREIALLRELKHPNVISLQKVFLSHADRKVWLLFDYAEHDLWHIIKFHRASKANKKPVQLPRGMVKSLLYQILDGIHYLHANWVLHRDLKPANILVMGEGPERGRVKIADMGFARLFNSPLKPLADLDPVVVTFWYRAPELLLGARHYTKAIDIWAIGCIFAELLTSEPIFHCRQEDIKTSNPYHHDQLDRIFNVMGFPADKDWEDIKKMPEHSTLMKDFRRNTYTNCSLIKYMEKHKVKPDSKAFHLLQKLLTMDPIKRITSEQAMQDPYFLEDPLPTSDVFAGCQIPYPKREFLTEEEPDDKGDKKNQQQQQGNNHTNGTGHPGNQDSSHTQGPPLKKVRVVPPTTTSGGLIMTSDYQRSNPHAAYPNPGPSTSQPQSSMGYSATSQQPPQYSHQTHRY
Chain of CDK8/Cyclin C (P24863 whole entry partner): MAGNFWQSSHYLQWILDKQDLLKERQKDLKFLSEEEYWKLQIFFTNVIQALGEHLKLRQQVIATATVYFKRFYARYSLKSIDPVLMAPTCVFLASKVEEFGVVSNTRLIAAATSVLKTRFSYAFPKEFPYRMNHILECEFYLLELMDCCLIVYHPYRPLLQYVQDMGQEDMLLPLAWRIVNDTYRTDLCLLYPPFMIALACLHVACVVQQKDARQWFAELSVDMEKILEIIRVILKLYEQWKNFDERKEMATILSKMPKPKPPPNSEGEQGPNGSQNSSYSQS

CDK2/Cyclin E1 = CDK2/Cyclin E1 (Homo sapiens, UniProt P24941); assay: NanoBRET live-cell target engagement, CDK2-NanoLuc/Cyclin E1 in HEK-293; format: binding; details: 10µM, read-out: CDK2/E1 Inhibition at 10µM (%)
CDK5/CDK5R1 = CDK5/CDK5R1 (Homo sapiens, UniProt Q00535); assay: NanoBRET live-cell target engagement, CDK5-NanoLuc/CDK5R1 in HEK-293; format: binding; details: for inhibition at 10 µM: read-out: CDK5/CDK5R1 Inhibition at 10µM (%); for IC50: read-out: CDK5/CDK5R1 IC50
CDK15/Cyclin Y = CDK15/Cyclin Y (Homo sapiens, UniProt Q96Q40); assay: NanoBRET live-cell target engagement, NanoLuc-CDK15/Cyclin Y in HEK-293; format: binding; details: 10µM, read-out: CDK15/Y Inhibition at 10µM (%)
Chain of CDK15/Cyclin Y (Q96Q40 whole entry): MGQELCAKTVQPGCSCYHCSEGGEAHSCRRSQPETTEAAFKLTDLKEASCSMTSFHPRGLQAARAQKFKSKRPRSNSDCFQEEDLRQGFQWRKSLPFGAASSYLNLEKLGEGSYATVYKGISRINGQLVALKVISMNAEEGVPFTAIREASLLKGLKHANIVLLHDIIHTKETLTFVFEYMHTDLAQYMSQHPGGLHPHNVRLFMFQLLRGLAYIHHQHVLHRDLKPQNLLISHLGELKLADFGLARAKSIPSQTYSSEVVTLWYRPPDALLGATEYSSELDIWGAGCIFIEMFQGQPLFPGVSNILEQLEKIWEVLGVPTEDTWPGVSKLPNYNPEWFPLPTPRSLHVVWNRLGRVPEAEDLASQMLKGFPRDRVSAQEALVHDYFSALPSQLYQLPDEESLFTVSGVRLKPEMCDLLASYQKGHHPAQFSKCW
Chain of CDK15/Cyclin Y (Q8ND76 whole entry partner): as the sequence (Q8ND76 whole entry partner) above

CDK16/Cyclin Y = CDK16/Cyclin Y (Homo sapiens, UniProt Q00536); assay: NanoBRET live-cell target engagement, CDK16-NanoLuc/Cyclin Y in HEK-293; format: binding; details: 10µM, read-out: CDK16/Y Inhibition at 10µM (%)
CDK6/Cyclin D1 = CDK6/Cyclin D1 (Homo sapiens, UniProt Q00534); assay: NanoBRET live-cell target engagement, NanoLuc-CDK6/Cyclin D1 in HEK-293; format: binding; details: for inhibition at 10 µM: read-out: CDK6/D1 Inhibition at 10µM (%); for IC50: read-out: CDK6/D1 IC50
Chain of CDK6/Cyclin D1 (Q00534 whole entry): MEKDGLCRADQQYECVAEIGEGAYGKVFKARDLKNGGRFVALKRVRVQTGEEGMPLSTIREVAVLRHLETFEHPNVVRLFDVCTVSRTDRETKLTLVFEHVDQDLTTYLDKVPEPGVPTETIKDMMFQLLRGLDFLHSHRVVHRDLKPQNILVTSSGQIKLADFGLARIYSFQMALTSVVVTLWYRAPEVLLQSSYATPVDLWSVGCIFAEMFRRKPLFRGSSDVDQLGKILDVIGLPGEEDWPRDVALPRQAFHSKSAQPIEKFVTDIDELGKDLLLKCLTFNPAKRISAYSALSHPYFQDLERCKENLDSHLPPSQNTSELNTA
Chain of CDK6/Cyclin D1 (P24385 whole entry partner): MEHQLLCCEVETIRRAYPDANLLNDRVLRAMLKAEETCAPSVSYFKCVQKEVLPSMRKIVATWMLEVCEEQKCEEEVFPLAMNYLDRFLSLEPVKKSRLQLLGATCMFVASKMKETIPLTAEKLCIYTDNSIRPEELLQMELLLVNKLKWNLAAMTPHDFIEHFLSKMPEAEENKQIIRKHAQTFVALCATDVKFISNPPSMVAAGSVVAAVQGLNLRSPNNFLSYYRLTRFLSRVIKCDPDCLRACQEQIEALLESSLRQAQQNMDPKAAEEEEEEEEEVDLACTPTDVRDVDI

CDK10/Cyclin L2 = CDK10/Cyclin L2 (Homo sapiens, UniProt Q15131); assay: NanoBRET live-cell target engagement, CDK10-NanoLuc/Cyclin L2 in HEK-293; details: read-out: CDK10/L2 Inhibition at 10µM (%), 10µM
CDK18/Cyclin Y = CDK18/Cyclin Y (Homo sapiens, UniProt Q07002); assay: NanoBRET live-cell target engagement, CDK18-NanoLuc/Cyclin Y in HEK-293; format: binding; details: 10µM, read-out: CDK18/Y Inhibition at 10µM (%)
Chain of CDK18/Cyclin Y (Q07002 whole entry): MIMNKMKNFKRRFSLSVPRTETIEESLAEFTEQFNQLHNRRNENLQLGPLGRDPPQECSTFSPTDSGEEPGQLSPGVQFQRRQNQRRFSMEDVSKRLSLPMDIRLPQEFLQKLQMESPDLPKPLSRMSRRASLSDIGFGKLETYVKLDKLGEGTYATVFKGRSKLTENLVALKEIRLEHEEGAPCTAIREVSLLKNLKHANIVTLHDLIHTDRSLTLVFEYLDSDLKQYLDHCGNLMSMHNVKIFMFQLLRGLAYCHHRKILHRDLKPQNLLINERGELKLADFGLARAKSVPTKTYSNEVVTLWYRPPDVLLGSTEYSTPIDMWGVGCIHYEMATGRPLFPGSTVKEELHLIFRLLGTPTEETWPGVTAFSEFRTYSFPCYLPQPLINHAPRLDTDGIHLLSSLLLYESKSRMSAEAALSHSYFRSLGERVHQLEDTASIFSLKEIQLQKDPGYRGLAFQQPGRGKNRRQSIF
Chain of CDK18/Cyclin Y (Q8ND76 whole entry partner): as the sequence (Q8ND76 whole entry partner) above

CDK17/Cyclin Y = CDK17/Cyclin Y (Homo sapiens, UniProt Q00537); assay: NanoBRET live-cell target engagement, CDK17-NanoLuc/Cyclin Y in HEK-293; format: binding; details: 10µM, read-out: CDK17/Y Inhibition at 10µM (%)
Chain of CDK17/Cyclin Y (Q00537 whole entry): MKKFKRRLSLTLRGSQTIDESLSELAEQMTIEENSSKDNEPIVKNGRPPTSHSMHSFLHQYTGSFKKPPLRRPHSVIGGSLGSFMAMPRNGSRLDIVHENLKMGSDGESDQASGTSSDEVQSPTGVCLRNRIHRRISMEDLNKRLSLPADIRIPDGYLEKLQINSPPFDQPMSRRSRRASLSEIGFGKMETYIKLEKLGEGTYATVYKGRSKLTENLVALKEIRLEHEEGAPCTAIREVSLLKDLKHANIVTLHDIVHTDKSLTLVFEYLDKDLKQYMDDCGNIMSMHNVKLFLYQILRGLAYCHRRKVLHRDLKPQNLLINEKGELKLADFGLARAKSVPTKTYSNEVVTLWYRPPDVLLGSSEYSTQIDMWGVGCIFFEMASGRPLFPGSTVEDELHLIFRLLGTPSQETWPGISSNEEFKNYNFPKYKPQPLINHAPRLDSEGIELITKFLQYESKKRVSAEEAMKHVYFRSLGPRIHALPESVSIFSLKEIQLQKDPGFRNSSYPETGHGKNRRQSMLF
Chain of CDK17/Cyclin Y (Q8ND76 whole entry partner): as the sequence (Q8ND76 whole entry partner) above

CDK1/Cyclin E1 = CDK1/Cyclin E1 (Homo sapiens, UniProt P06493); assay: NanoBRET live-cell target engagement, CDK1-NanoLuc/Cyclin E1 in HEK-293; format: binding; details: for inhibition at 10 µM: read-out: CDK1/E1 Inhibition at 10µM (%); for IC50: read-out: CDK1/E1 IC50
CDK4/Cyclin D1 = CDK4/Cyclin D1 (Homo sapiens, UniProt P11802); assay: NanoBRET live-cell target engagement, NanoLuc-CDK4/Cyclin D1 in HEK-293; format: binding; details: for inhibition at 10 µM: read-out: CDK4/D1 Inhibition at 10µM (%); for IC50: read-out: CDK4/D1 IC50
CDK7 = CDK7 (Homo sapiens, UniProt P50613); assay: NanoBRET live-cell target engagement, NanoLuc-CDK7 in HEK-293; format: binding; details: for inhibition at 10 µM: read-out: CDK7 Inhibition at 10µM (%)
Chain of CDK7 (P50613 whole entry): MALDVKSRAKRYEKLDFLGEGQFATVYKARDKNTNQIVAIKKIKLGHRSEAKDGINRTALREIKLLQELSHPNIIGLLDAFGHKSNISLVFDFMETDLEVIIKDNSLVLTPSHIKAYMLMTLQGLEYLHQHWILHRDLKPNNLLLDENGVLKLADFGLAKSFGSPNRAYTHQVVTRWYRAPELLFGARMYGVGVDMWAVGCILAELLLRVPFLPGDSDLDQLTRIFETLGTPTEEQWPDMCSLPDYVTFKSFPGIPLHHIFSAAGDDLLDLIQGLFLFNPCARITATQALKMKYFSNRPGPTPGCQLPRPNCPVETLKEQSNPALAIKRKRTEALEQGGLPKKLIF

CC(C)CC(=O)Nc1[nH]nc2c1CN(C(=O)C1CCN(C)CC1)C2(C)C [PHA-793887]
inhibition at 10 µM (CDK19/Cyclin C; average of experiments): 52.6% | inhibition at 10 µM (CDK19/Cyclin C; independent experiment 1): 63.4% | inhibition at 10 µM (CDK19/Cyclin C; independent experiment 2): 41.9% | inhibition at 10 µM (CDK14/Cyclin Y; average of experiments): 81.4% | inhibition at 10 µM (CDK14/Cyclin Y; independent experiment 1): 81% | inhibition at 10 µM (CDK14/Cyclin Y; independent experiment 2): 81.8% | inhibition at 10 µM (CDK11B/Cyclin L2; average of experiments): 56.3% | inhibition at 10 µM (CDK11B/Cyclin L2; independent experiment 1): 57.8% | inhibition at 10 µM (CDK11B/Cyclin L2; independent experiment 2): 54.7% | inhibition at 10 µM (CDK3/Cyclin E1; average of experiments): 93.2% | inhibition at 10 µM (CDK3/Cyclin E1; independent experiment 1): 93.4% | inhibition at 10 µM (CDK3/Cyclin E1; independent experiment 2): 93% | IC50 (CDK3/Cyclin E1; average (± SEM where n=3)): 280 nM | IC50 (CDK3/Cyclin E1; independent experiment 1): 165 nM | IC50 (CDK3/Cyclin E1; independent experiment 2): 394 nM | inhibition at 10 µM (CDK9/Cyclin K; average of experiments): 86% | inhibition at 10 µM (CDK9/Cyclin K; independent experiment 1): 87.8% | inhibition at 10 µM (CDK9/Cyclin K; independent experiment 2): 84.1% | inhibition at 10 µM (CDK11A/Cyclin L2; average of experiments): 50.1% | inhibition at 10 µM (CDK11A/Cyclin L2; independent experiment 1): 50.7% | inhibition at 10 µM (CDK11A/Cyclin L2; independent experiment 2): 49.4% | inhibition at 10 µM (CDK20/Cyclin H; independent experiment 1): 5.8% | inhibition at 10 µM (CDK20/Cyclin H; independent experiment 2): 16.7% | inhibition at 10 µM (CDK8/Cyclin C; average of experiments): 57.2% | inhibition at 10 µM (CDK8/Cyclin C; independent experiment 1): 65.2% | inhibition at 10 µM (CDK8/Cyclin C; independent experiment 2): 49.1% | inhibition at 10 µM (CDK2/Cyclin E1; average of experiments): 96% | inhibition at 10 µM (CDK2/Cyclin E1; independent experiment 1): 95.7% | inhibition at 10 µM (CDK2/Cyclin E1; independent experiment 2): 96.3% | inhibition at 10 µM (CDK5/CDK5R1; average of experiments): 92% | inhibition at 10 µM (CDK5/CDK5R1; independent experiment 1): 89.9% | inhibition at 10 µM (CDK5/CDK5R1; independent experiment 2): 94.2% | IC50 (CDK5/CDK5R1; average (± SEM where n=3)): 360 nM | IC50 (CDK5/CDK5R1; independent experiment 1): 422 nM | IC50 (CDK5/CDK5R1; independent experiment 2): 300 nM | inhibition at 10 µM (CDK15/Cyclin Y; average of experiments): 72.5% | inhibition at 10 µM (CDK15/Cyclin Y; independent experiment 1): 72.6% | inhibition at 10 µM (CDK15/Cyclin Y; independent experiment 2): 72.5% | inhibition at 10 µM (CDK16/Cyclin Y; independent experiment 1): 84.5% | inhibition at 10 µM (CDK16/Cyclin Y; independent experiment 2): 87% | inhibition at 10 µM (CDK6/Cyclin D1; average of experiments): 88.3% | inhibition at 10 µM (CDK6/Cyclin D1; independent experiment 1): 84.9% | inhibition at 10 µM (CDK6/Cyclin D1; independent experiment 2): 91.6% | IC50 (CDK6/Cyclin D1; average (± SEM where n=3)): 430 nM | IC50 (CDK6/Cyclin D1; independent experiment 1): 374 nM | IC50 (CDK6/Cyclin D1; independent experiment 2): 480 nM | inhibition at 10 µM (CDK10/Cyclin L2; average of experiments): 30% | inhibition at 10 µM (CDK10/Cyclin L2; independent experiment 1): 32.9% | inhibition at 10 µM (CDK10/Cyclin L2; independent experiment 2): 27.2% | inhibition at 10 µM (CDK18/Cyclin Y; average of experiments): 91.7% | inhibition at 10 µM (CDK18/Cyclin Y; independent experiment 1): 86.8% | inhibition at 10 µM (CDK18/Cyclin Y; independent experiment 2): 96.6% | inhibition at 10 µM (CDK17/Cyclin Y; average of experiments): 86.9% | inhibition at 10 µM (CDK17/Cyclin Y; independent experiment 1): 86.4% | inhibition at 10 µM (CDK17/Cyclin Y; independent experiment 2): 87.4% | inhibition at 10 µM (CDK1/Cyclin E1; average of experiments): 71.4% | inhibition at 10 µM (CDK1/Cyclin E1; independent experiment 1): 72% | inhibition at 10 µM (CDK1/Cyclin E1; independent experiment 2): 70.8% | IC50 (CDK1/Cyclin E1; average (± SEM where n=3)): 820 nM | IC50 (CDK1/Cyclin E1; independent experiment 1): 800 nM | IC50 (CDK1/Cyclin E1; independent experiment 2): 850 nM | inhibition at 10 µM (CDK4/Cyclin D1; average of experiments): 83.1% | inhibition at 10 µM (CDK4/Cyclin D1; independent experiment 1): 82.5% | inhibition at 10 µM (CDK4/Cyclin D1; independent experiment 2): 83.8% | IC50 (CDK4/Cyclin D1; average (± SEM where n=3)): 320 nM | IC50 (CDK4/Cyclin D1; independent experiment 1): 122 nM | IC50 (CDK4/Cyclin D1; independent experiment 2): 510 nM | inhibition at 10 µM (CDK7; average of experiments): 94.1% | inhibition at 10 µM (CDK7; independent experiment 1): 95.3% | inhibition at 10 µM (CDK7; independent experiment 2): 92.8% | IC50 (CDK7; average (± SEM where n=3), read-out: CDK7 IC50): 240 nM | IC50 (CDK7; independent experiment 1, read-out: CDK7 IC50): 240 nM | IC50 (CDK7; independent experiment 2, read-out: CDK7 IC50): 230 nM | IC50 (CDK7; live HEK-293, 2 h, mean ± S.E.M. (n=3) or mean (n=2), read-out: IC50 for CDK/cyclin complexes, CDK7): 240 nM

Reference: PMC7265341, “Quantifying CDK inhibitor selectivity in live cells” (Nature Communications, 2020)
